From patent US10575515B2, “Methods and compositions for preserving tissues and organs” (The General Hospital Corporation, priority 2010, dated 2020)
One block for each compound: values may come before it.

Assays:
hepatocytes [1] = assay: Hepatocyte viability after 60 min incubation with isotonic mixtures of sugars and DMSO; type: cell-based
Procedure: Significant loading of 3OMG can be achieved within 20 minutes (FIG. 37a). The hepatocyte viability when incubated with 3OMG is statistically equal to other saccharides that are not cryopreservative for mammalian cells (FIG. 37b). By comparison, incubation with a common cryopreservative dimethyl sulfoxide (DMSO) under similar conditions reduces viability to 12%.
Hepatocytes can be loaded with 3OMG within 20 minutes in vitro. FIG. 37A illustrates that the kinetics of 3OMG uptake show significant loading of cells with 3OMG within 20 minutes, and even more rapid release with washing; inventors can currently perfuse the livers in stable condition for more than 6 hrs, which is more than sufficient for loading with 3OMG.

hepatocytes [2] = assay: Cryopreservation of 3OMG-loaded hepatocytes, post-thaw viability by trypan blue exclusion; type: cell-based; details: Hepatocyte; 200 mM 3OMG, storage in liquid nitrogen up to one week; read-out: post-thaw cell viability (percentage of unfrozen control)
Procedure: Hepatocytes were incubated with 200 mM 3OMG for 60 min and then washed with sugar-free medium for 30 min. Controls were incubated in glucose-free DMEM (no-sugar control), sucrose (non-permeable/non-intracellular control), and D-glucose (permeable but metabolizable control). Following incubation, cells were pelleted by centrifugation for 5 min, supernatant decanted, and resuspended in cold HypoThermosol solution (HTS) with 200 mM 3OMG, 2DG, sucrose, or D-glucose (1×10^6 cell/mL). Cell suspensions were transferred to 1 mL cryogenic vials and cooled at −1° C./min to −6° C., seeded to induce the formation of extracellular ice by application of cold forceps to the exterior of the cryovials, and then cooled at −1° C./min to −80° C., and finally transferred to liquid nitrogen (−196° C.) for storage lasting 1 to 7 days. Following storage, samples were rapidly thawed in a 37° C. water bath for 2 min with gentle agitation. The samples were then diluted 1:10 in D-glucose-free DMEM and incubated for 10 min at 37° C. to wash out the loaded sugar compounds. Samples were then centrifuged, supernatant decanted, and resuspended in culture medium. The viability of the cryopreserved cells was determined immediately after thawing using a trypan blue exclusion assay and expressed as percent of unfrozen control. […]

rat livers = assay: Subzero nonfreezing storage of whole rat livers at −5° C., histology (H&E); details: loaded with 3OMG, 24 hours at −5° C., then NELP with red blood cells
[3] = Supercooling in cryovials at subzero temperatures in selected media formulations; type: physicochemical
Procedure: We tested a variety of preservation media and additives for achieving SZNF storage overnight in a controlled rate freezer. We were able to reach −10° C. without any freezing in supplemented University of Wisconsin (UW) and Hypothermosol (HTS) by proper tuning of the rate of temperature reduction. […] FIG. 48 depicts the temperature profile for successful subzero cooling at −10° C.

hepatocytes [4] = assay: Long-term hepatic functions of cryopreserved hepatocytes in collagen sandwich culture; type: cell-based; details: albumin, urea, cytochrome P450; 3OMG loaded and frozen
Procedure: Methods: Cells were cultured in a collagen sandwich for […], and media collected daily were analyzed for albumin and urea. All values were normalized by viable cell number (DNA content) and shown as o the means±se (n>9). Urea secretion and resorufin formation were statistically not different (p=0.51 and p=0.3 respectively). Albumin production on days 7-13 were statistically different at p=0.014 (FIG. 39).

[5] = system: C3A cells (human liver carcinoma line); assay: Cryopreservation of C3A cells with troglitazone, post-thaw viability by trypan blue exclusion; type: cell-based; details: 25 μM troglitazone 30 mins, cryopreservation in liquid nitrogen, vs without
Description: Inventors performed a molecular docking study to identify ligands of PPAR-γ, a transcription factor that is known to have the ability to modulate metabolic rate (see FIG. 34), where inventors identified Troglitazone as a candidate. Inventors also performed preliminary studies to test the effect of supplementation in preservation efficacy. In these initial studies inventors used C3A cells (human liver carcinoma line) and cryopreservation rather than supercooling, due to availability of data to be used as controls. Inventors observed that Troglitazone increased post-thaw viability ˜2.5 fold. We are currently testing Troglitazone and other compounds with primary rat hepatocytes both in cryopreservation and supercooled storage. Nearly confluent C3A cell flasks were trypsinized in PBS solution; cells were sedimented by centrifugation (10 min at […] at 4 degree C.). The medium was replaced by adding 2 mL of HTS and the cell pallets were re-suspended in the HTS by gentle pipetting. The cell samples in 1 mL aliquots were put in 1.5 mL cryovials. The samples were frozen in a controlled rate freezer using a freeze controlled Cryobath (Cryologic, Victoria, Australia) with a CL-8800 temperature controller (Cryologic). A cooling rate of 1 degree C./min was used. The samples were seeded with ice at −4 degrees C. by using a cotton bulb dipped in liquid nitrogen. […]

hepatocytes [6] = assay: SZNF storage of cells at −4° C. with metabolic supplement, cell viability; type: cell-based; details: tandem SZNF with metabolic suppressant
Procedure: Inventors are testing a variety of metabolic supplements to enhance viability during preservation. One of the most successful additives inventors tested is magnolol, a biphenolic compound with multiple properties (including tumor suppression and antioxidative capabilities). […] Note that this study was performed early on where stable preservation temperature in plate culture models was −4° C., testing at −10° C. is currently in progress.
The cells were preserved on collagen coated 6 well plates and cultured at 37° C. for one day prior to preservation. Cells were then preserved 48 hours at −4° C.; viability was determined 1 hr after rewarming

temperature reached without any freezing ([3]; overnight, controlled rate freezer): −15 °C
fraction of the time the protocol is stable ([3]; −15° C. in HTS): about 50%
long-term hepatic functions vs non-frozen hepatocytes (hepatocytes [4]): similar
Structure (SMILES): CO[C@@H]([C@H](O)[C@H](O)CO)[C@@H](O)C=O [3OMG, 3-O-methyl-glucose]
toxicity for hepatocytes (hepatocytes [1]; concentration range studied, 60 min incubation): minimally toxic
viability at 200000 µM (hepatocytes [2]): > 50%
histology after storage and NELP perfusion (rat livers): perfect preservation of microstructure

Structure (SMILES): Cc1c(C)c2c(c(C)c1O)CCC(C)(COc1ccc(CC3SC(=O)NC3=O)cc1)O2 (stereo not drawn) [Troglitazone]
increase of post-thaw viability [5]: ~2.5 fold

Structure (SMILES): C[S+](C)[O-] [dimethyl sulfoxide (DMSO), dimethyl sulfoxide, reference compound]
hepatocyte viability after incubation (hepatocytes [1]; incubation 60 min, isotonic mixture): 12%

Structure (SMILES): C=CCc1ccc(O)c(-c2cc(CC=C)ccc2O)c1 [magnolol, 5,5′-Diallyl-2,2′-biphenyldiol]
preservation of viability of cells compared to SZNF in the absence of metabolic suppressant agent (hepatocytes [6]): at least 60%
